The supplement of paper PMC10307832

Experiments:
Assay in all cases: relative viability (nuclei count vs DMSO), 5 days (fraction); higher = more cells survive
[1] = compound: C[C@@H](C(=O)N[C@@H](C1CCCCC1)C(=O)N2CCC[C@H]2C(=O)N[C@@H]3[C@@H](CC4=CC=CC=C34)OCC#CC#CCO[C@@H]5CC6=CC=CC=C6[C@@H]5NC(=O)[C@@H]7CCCN7C(=O)[C@H](C8CCCCC8)NC(=O)[C@H](C)NC)NC [AZD5582] + O=C(CCCCCCC(=O)Nc1ccccc1)NO [Vorinostat] (partner 1 µM)
In short: (§1)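 Cells from lung cancer lines were seeded into 1536-well plates and, one day later, dosed by pin tool. Treatments were either a single drug or a fixed dose of an anchor drug with five library-drug doses (not always all listed) in √10 steps. After 5 days, nuclei were stained in a one-step fixation (final 0.05% Triton X-100, 1% formaldehyde, 1 ug/ml Hoechst) and counted on 4× images, and relative viability is the treated-to-vehicle nuclei ratio, as the median of duplicate plates.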

[2] = compound: Cn1nnc2c(C(N)=O)ncn2c1=O [Temozolomide] + O=C(CCCCCCC(=O)Nc1ccccc1)NO [Vorinostat] (partner 1 µM)
In short: as §1

[3] = compound: C[C@@H](C(=O)N[C@@H](C1CCCCC1)C(=O)N2CCC[C@H]2C(=O)N[C@@H]3[C@@H](CC4=CC=CC=C34)OCC#CC#CCO[C@@H]5CC6=CC=CC=C6[C@@H]5NC(=O)[C@@H]7CCCN7C(=O)[C@H](C8CCCCC8)NC(=O)[C@H](C)NC)NC [AZD5582] + N=C(N)NC(=N)NCCc1ccccc1 [Phenformin] (partner 250 µM)
In short: as §1

[4] = compound: Cn1nnc2c(C(N)=O)ncn2c1=O [Temozolomide] + CS(=O)(=O)CCNCc1ccc(-c2ccc3ncnc(Nc4ccc(OCc5cccc(F)c5)c(Cl)c4)c3c2)o1 [Lapatinib] (partner 2 µM)
In short: as §1

Row | Cell Line | relative viability ([1]; first compound 0.001581 µM) | relative viability ([1]; first compound 0.005 µM) | relative viability ([1]; first compound 0.01581 µM) | relative viability ([1]; first compound 0.05 µM) | relative viability ([2]; first compound 0.2 µM) | relative viability ([2]; first compound 0.6325 µM) | relative viability ([2]; first compound 2 µM) | relative viability ([2]; first compound 6.325 µM) | relative viability ([2]; first compound 20 µM) | relative viability ([3]; first compound 0.001581 µM) | relative viability ([3]; first compound 0.005 µM) | relative viability ([3]; first compound 0.01581 µM) | relative viability ([3]; first compound 0.05 µM) | relative viability ([4]; first compound 0.2 µM) | relative viability ([4]; first compound 0.6325 µM) | relative viability ([4]; first compound 2 µM) | relative viability ([4]; first compound 6.325 µM) | relative viability ([4]; first compound 20 µM)
1 | NCI-H2023 | 0.508 | 0.725 | 0.627 | 0.643 | 0.725 | 0.676 | 0.675 | 0.502 | 0.718 | 0.387 | 0.409 | 0.348 | 0.408 | 0.894 | 0.67 | 0.86 | 0.773 | 0.868
2 | COR-L23 | 0.404 | 0.495 | 0.452 | 0.587 | 0.521 | 0.531 | 0.521 | 0.476 | 0.371 | 0.42 | 0.418 | 0.385 | 0.521 | 1.25 | 1.03 | 1.12 | 1.02 | 0.948
3 | EMC-BAC-2 | 0.406 | 0.474 | 0.375 | 0.546 | 0.831 | 0.628 | 0.454 | 0.398 | 0.437 | 0.405 | 0.508 | 0.418 | 0.335 | 0.914 | 0.871 | 0.898 | 0.856 | 0.84
4 | A-427 | 0.816 | 0.862 | 0.885 | 0.904 | 0.883 | 0.896 | 0.837 | 0.685 | 0.569 | 0.265 | 0.322 | 0.248 | 0.206 | 0.989 | 1.09 | 1.14 | 0.91 | 0.487
5 | NCI-H2009 | 0.695 | 0.743 | 0.711 | 0.792 | 0.826 | 0.737 | 0.712 | 0.706 | 0.684 | 0.445 | 0.534 | 0.454 | 0.451 | 1.12 | 0.739 | 0.973 | 0.911 | 1.01
6 | NCI-H358 | 0.639 | 0.745 | 0.678 | 0.714 | 0.558 | 0.656 | 0.6 | 0.647 | 0.553 | 0.366 | 0.374 | 0.399 | 0.313 | 0.538 | 0.572 | 0.475 | 0.439 | 0.419
7 | NCI-H23 | 0.445 | 0.583 | 0.483 | 0.448 | 0.79 | 0.727 | 0.716 | 0.595 | 0.541 | 0.66 | 0.611 | 0.518 | 0.425 | 1.22 | 1.04 | 1.15 | 0.969 | 0.912
8 | NCI-H2085 | 0.82 | 1 | 0.73 | 0.917 | 0.87 | 0.816 | 0.865 | 0.76 | 0.68 | 0.562 | 0.623 | 0.561 | 0.542 | 0.75 | 0.751 | 0.75 | 0.779 | 0.778
9 | NCI-H1755 | 0.775 | 0.863 | 0.688 | 0.88 | 0.863 | 0.763 | 0.604 | 0.627 | 0.638 | 0.578 | 0.666 | 0.502 | 0.576 | 1.11 | 1.05 | 0.966 | 0.979 | 0.98
10 | NCI-H1666 | 0.848 | 0.891 | 1.05 | 0.958 | 1.07 | 1 | 0.94 | 0.794 | 0.868 | 0.532 | 0.544 | 0.557 | 0.609 | 0.626 | 0.706 | 0.486 | 0.495 | 0.536
11 | UMC-11 | 0.396 | 0.391 | 0.381 | 0.354 | 0.388 | 0.415 | 0.423 | 0.391 | 0.264 | 0.281 | 0.301 | 0.298 | 0.412 | 1.09 | 1.06 | 1.09 | 0.894 | 0.685
12 | HCC-78 | 0.414 | 0.493 | 0.438 | 0.366 | 0.372 | 0.433 | 0.429 |  | 0.431 | 0.606 | 0.664 | 0.389 | 0.567 | 0.938 | 0.602 | 0.791 | 0.321 | 0.826
13 | NCI-H1944 | 0.464 | 0.641 | 0.542 | 0.619 | 0.557 | 0.561 | 0.541 | 0.474 | 0.517 | 0.176 | 0.227 | 0.193 | 0.286 | 0.835 | 0.831 | 0.871 | 0.843 | 0.799
14 | NCI-H1651 | 0.525 | 0.557 | 0.56 | 0.584 | 0.582 | 0.49 | 0.628 | 0.499 | 0.613 | 0.353 | 0.339 |  | 0.435 | 0.969 | 0.881 | 0.876 | 0.754 | 0.934
15 | NCI-H2347 | 0.63 | 0.547 | 0.515 | 0.483 | 0.476 | 0.668 | 0.674 | 0.629 | 0.635 | 0.356 | 0.352 | 0.38 | 0.239 | 1.18 | 1.01 | 0.93 | 0.781 | 0.908
16 | HOP-62 | 0.506 | 0.663 | 0.41 | 0.547 | 0.873 | 0.58 | 0.675 | 0.456 | 0.795 | 0.515 | 0.676 | 0.666 | 0.711 | 1.29 | 1.02 | 1.05 | 1.05 | 0.75
17 | NCI-H1993 | 0.725 | 0.888 | 0.795 | 1.03 | 0.546 | 0.829 | 1.07 | 0.798 | 0.507 | 0.535 | 0.464 | 0.483 | 0.532 | 0.879 | 0.854 | 0.768 | 0.865 | 0.925
18 | NCI-H1793 | 0.767 | 0.927 | 0.565 | 0.587 |  | 0.847 | 0.758 | 0.692 | 0.503 | 0.295 | 0.404 | 0.306 | 0.264 |  | 0.81 | 0.608 | 0.649 | 0.694
